Results: patent US11497752B2, “Compounds and uses thereof” (Foghorn Therapeutics Inc., priority 2018, dated 2022)

Columns and labels:
BRG-1 = BRG-1 (Homo sapiens, UniProt P51532); assay: ATPase catalytic activity of BRG-1 (ADP-Glo in vitro biochemical assay); details: for BRG1 Max % Inhibition: Table 5
BRM = BRM (Homo sapiens, UniProt P51531); assay: ATPase catalytic activity of BRM (ADP-Glo in vitro biochemical assay); details: for BRM Max % Inhibition: Table 5
Chain of BRM (P51531 whole entry): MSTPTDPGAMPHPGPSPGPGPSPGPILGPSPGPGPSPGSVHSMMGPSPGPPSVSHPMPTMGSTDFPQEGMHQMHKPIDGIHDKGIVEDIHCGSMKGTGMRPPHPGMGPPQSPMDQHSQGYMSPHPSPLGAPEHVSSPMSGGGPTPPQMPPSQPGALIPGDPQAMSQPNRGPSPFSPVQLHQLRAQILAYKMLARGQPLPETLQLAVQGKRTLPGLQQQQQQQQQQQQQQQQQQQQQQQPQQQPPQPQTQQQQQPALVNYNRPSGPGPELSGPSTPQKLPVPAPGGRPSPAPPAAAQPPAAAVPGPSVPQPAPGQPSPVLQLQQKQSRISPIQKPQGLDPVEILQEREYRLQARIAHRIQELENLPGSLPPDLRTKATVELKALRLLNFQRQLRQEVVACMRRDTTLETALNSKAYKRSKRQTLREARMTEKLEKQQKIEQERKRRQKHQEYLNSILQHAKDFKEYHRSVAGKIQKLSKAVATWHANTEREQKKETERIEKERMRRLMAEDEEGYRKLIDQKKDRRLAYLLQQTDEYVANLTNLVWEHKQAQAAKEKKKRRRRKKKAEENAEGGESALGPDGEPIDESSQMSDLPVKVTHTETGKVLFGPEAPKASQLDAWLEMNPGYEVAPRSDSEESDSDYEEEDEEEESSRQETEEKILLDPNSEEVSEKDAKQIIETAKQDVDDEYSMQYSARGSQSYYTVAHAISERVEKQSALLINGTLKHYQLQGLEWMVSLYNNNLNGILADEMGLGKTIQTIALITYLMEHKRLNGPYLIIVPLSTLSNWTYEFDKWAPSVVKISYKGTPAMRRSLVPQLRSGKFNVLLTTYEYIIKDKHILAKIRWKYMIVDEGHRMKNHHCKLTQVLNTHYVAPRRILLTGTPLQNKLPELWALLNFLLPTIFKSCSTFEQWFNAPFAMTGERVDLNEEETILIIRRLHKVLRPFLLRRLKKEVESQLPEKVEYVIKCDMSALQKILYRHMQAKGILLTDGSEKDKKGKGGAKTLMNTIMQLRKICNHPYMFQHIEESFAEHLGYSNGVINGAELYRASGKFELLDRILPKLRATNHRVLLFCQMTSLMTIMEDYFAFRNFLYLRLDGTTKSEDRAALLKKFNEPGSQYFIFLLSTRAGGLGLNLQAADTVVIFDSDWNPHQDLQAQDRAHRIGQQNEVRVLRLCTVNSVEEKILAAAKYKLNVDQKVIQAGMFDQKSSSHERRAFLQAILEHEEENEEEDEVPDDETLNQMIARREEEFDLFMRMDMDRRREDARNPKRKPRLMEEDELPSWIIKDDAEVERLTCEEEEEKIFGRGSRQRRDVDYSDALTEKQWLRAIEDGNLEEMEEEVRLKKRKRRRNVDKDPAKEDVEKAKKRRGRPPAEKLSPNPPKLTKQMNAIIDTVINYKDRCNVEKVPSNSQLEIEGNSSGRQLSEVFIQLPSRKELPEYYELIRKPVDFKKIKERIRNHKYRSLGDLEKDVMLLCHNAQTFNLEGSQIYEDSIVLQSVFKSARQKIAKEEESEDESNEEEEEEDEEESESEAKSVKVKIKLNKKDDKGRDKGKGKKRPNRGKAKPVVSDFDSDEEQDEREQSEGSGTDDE

Chain of BRG-1 (P51532 whole entry): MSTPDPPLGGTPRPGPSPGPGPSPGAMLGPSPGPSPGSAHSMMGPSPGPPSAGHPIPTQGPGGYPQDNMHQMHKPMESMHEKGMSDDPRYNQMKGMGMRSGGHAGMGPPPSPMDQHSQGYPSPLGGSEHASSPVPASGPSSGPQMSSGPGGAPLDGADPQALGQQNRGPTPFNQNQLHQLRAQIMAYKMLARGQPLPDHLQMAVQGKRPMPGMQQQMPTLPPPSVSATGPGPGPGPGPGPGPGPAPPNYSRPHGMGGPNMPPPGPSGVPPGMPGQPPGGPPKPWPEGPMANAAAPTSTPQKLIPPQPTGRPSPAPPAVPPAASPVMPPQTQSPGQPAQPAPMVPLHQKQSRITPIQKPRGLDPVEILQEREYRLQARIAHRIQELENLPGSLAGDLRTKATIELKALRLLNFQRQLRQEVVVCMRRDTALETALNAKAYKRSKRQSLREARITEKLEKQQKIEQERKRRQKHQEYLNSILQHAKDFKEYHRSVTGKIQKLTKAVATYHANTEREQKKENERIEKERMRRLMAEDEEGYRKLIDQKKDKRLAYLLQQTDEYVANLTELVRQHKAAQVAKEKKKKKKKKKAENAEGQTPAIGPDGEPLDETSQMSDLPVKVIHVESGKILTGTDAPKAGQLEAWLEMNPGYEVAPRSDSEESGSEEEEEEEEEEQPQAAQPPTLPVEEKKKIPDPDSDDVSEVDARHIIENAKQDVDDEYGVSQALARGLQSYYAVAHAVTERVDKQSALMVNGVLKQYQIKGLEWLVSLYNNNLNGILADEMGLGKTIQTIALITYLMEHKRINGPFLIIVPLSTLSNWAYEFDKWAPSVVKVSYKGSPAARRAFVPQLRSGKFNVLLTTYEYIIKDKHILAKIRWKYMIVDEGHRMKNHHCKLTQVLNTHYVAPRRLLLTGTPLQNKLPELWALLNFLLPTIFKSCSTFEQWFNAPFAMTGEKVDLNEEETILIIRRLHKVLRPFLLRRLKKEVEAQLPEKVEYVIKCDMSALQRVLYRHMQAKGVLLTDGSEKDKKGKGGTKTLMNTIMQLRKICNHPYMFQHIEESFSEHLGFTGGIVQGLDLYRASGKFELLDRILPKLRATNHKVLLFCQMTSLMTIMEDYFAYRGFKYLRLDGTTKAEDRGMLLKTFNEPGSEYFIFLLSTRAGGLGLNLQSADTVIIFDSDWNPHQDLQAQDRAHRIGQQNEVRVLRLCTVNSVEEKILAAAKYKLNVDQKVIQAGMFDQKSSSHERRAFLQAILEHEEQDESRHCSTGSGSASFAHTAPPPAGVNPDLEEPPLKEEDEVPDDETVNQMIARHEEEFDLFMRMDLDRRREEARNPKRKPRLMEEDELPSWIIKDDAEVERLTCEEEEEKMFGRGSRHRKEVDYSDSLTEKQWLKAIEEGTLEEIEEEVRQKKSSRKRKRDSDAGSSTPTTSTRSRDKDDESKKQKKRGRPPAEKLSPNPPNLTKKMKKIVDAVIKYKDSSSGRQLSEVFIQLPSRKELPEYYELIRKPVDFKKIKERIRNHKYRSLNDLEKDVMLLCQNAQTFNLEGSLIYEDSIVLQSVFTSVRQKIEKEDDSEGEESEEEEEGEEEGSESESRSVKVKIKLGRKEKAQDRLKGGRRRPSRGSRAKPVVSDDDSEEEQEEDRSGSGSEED

Compound | IC50 (BRG-1) [µM] | BRG1 Max % Inhibition (BRG-1) [%] | IC50 (BRM) [µM] | BRM Max % Inhibition (BRM) [%]
CN(C)S(=O)(=O)c1cccc(C(=O)N[C@@H](CN)C(=O)Nc2nc(-c3ccccc3)cs2)c1 [Compound 25, (S)—N-(3-amino-1-oxo-1-((4-phenylthiazol-2-yl)amino)propan-2-yl)-3-(N,N-dimethylsulfamoyl)benzamide] | > 10 | >50 | > 10 | >70
CNS(=O)(=O)c1cccc(C(=O)NCC(=O)Nc2nc(-c3ccccc3)cs2)c1 [Compound 26, 3-(methylsulfamoyl)-N-[2-oxo-2-[(4-phenylthiazol-2-yl)amino]ethyl]benzamide] | > 10 | <30 | > 10 | >60
CN(C)S(=O)(=O)c1cccc(C(=O)NCC(=O)Nc2nc(-c3ccccc3C#N)cs2)c1 [Compound 27, N-(2-((4-(2-cyanophenyl)thiazol-2-yl)amino)-2-oxoethyl)-3-(N,N-dimethylsulfamoyl)benzamide] | > 10 | >30 | > 10 | >60
NS(=O)(=O)c1cccc(C(=O)NCC(=O)Nc2nc(-c3ccccc3)cs2)c1 [Compound 28, N-(2-oxo-2-((4-phenylthiazol-2-yl)amino)ethyl)-3-sulfamoylbenzamide] | 1 to 10 | >30 | 1 to 10 | >50
Cc1cccc(C)c1-c1csc(NC(=O)CNC(=O)c2cccc(S(=O)(=O)N(C)C)c2)n1 [Compound 29, N-[2-[[4-(2,6-dimethylphenyl)thiazol-2-yl]amino]-2-oxo-ethyl]-3-(dimethylsulfamoyl)benzamide] | > 10 | >60 | > 10 | >50
Cc1ccc(-c2csc(NC(=O)CNC(=O)c3cccc(S(=O)(=O)N(C)C)c3)n2)cc1 [Compound 31, 3-(dimethylsulfamoyl)-N-[2-oxo-2-[[4-(p-tolyl)thiazol-2-yl]amino]ethyl]benzamide] | 1 to 10 | <30 | 1 to 10 | >30
CN(C)S(=O)(=O)c1cccc(C(=O)NCC(=O)Nc2nc(-c3ccccn3)cs2)c1 [Compound 32, 3-(dimethylsulfamoyl)-N-[2-oxo-2-[[4-(2-pyridyl)thiazol-2-yl]amino]ethyl]benzamide] | > 10 | <30 | > 10 | >30
CN(C)S(=O)(=O)c1cccc(C(=O)NCC(=O)Nc2nc(-c3cccc(C(=O)O)c3)cs2)c1 [Compound 33, 3-[2-[[2-[[3-(dimethylsulfamoyl)benzoyl]amino]acetyl]amino]thiazol-4-yl]benzoic acid] | > 10 | >80 | > 10 | >80
CN(C)S(=O)(=O)c1cccc(C(=O)NCC(=O)Nc2nc(C3CCCCC3)cs2)c1 [Compound 34, N-[2-[(4-cyclohexylthiazol-2-yl)amino]-2-oxo-ethyl]-3-(dimethylsulfamoyl)benzamide] | > 10 | >60 | > 10 | >90
CN(C)C(=O)c1cccc(-c2csc(NC(=O)CNC(=O)c3cccc(S(=O)(=O)N(C)C)c3)n2)c1 [Compound 37, 3-[2-[[2-[[3-(dimethylsulfamoyl)benzoyl]amino]acetyl]amino]thiazol-4-yl]-N,N-dimethyl-benzamide] | > 10 | >30 | > 10 | >50
CN(C)S(=O)(=O)c1cccc(C(=O)NCC(=O)Nc2cccc(-c3ccccc3)c2)c1 [Compound 40, 3-(dimethylsulfamoyl)-N-[2-oxo-2-(3-phenylanilino)ethyl]benzamide] | – | <30 | – | >50
CC(C)(C)c1cccc(C(=O)NCC(=O)Nc2nc(-c3ccccc3)cs2)c1 [Compound 65, 3-(tert-butyl)-N-(2-oxo-2-((4-phenylthiazol-2-yl)amino)ethyl)benzamide] | 1 to 10 | >30 | 1 to 10 | >70

The next lines start with the values.

IC50 (BRG-1) [µM] | BRG1 Max % Inhibition (BRG-1) [%] | IC50 (BRM) [µM] | BRM Max % Inhibition (BRM) [%] | Compound
> 10 | >90 | > 10 | >95 | CC(C)c1csc(NC(=O)CNC(=O)c2cccc(S(=O)(=O)N(C)C)c2)n1 [Compound 35, 3-(dimethylsulfamoyl)-N-[2-[(4-isopropylthiazol-2-yl)amino]-2-oxoethyl]benzamide]
1 to 10 | >90 | < 1 | >95 | CS(=O)(=O)c1cccc(C(=O)NCC(=O)Nc2nc(-c3cccc(-c4ccccc4)c3)cs2)c1 [Compound 36, 3-methylsulfonyl-N-[2-oxo-2-[[4-(3-phenylphenyl)thiazol-2-yl]amino]ethyl]benzamide]
> 10 | >80 | > 10 | >80 | CSCC[C@H](NC(=O)c1ccc(NS(C)(=O)=O)cc1)C(=O)Nc1nc(-c2ccccc2)cs1 [Compound 38, 4-(methanesulfonamido)-N-[(1S)-3-methylsulfanyl-1-[(4-phenylthiazol-2-yl)carbamoyl]propyl]benzamide]
> 10 | <30 | > 10 | >30 | O=C(CNC(=O)c1cccc(S(=O)(=O)C2CC2)c1)Nc1nc(-c2ccccc2)cs1 [Compound 39, 3-cyclopropylsulfonyl-N-[2-oxo-2-[(4-phenylthiazol-2-yl)amino]ethyl]benzamide]
1 to 10 | – | 1 to 10 | – | CC(C)CC[C@H](NC(=O)c1ccccc1)C(=O)Nc1nc(-c2ccccc2)cs1 [Compound 46, N-[(1S)-4-methyl-1-[(4-phenylthiazol-2-yl)carbamoyl]pentyl]benzamide]
1 to 10 | – | 1 to 10 | – | O=C(N[C@@H](CCc1ccccc1)C(=O)Nc1nc(-c2ccccc2)cs1)c1ccccc1 [Compound 49, N-[(1S)-3-phenyl-1-[(4-phenylthiazol-2-yl)carbamoyl]propyl]benzamide]
> 10 | – | 1 to 10 | – | CCC[C@H](NC(=O)c1ccccc1)C(=O)Nc1nc(-c2ccccc2)cs1 [Compound 51, N-[(1S)-1-[(4-phenylthiazol-2-yl)carbamoyl]butyl]benzamide]
1 to 10 | – | 1 to 10 | – | CSCC[C@H](NC(=O)c1ccc(O)cc1)C(=O)Nc1nc(-c2ccccc2)cs1 [Compound 53, 4-hydroxy-N-[(1S)-3-methylsulfanyl-1-[(4-phenylthiazol-2-yl)carbamoyl]propyl]benzamide]
1 to 10 | >80 | 1 to 10 | >90 | CSCC[C@H](NC(=O)c1cccc(C(C)(C)O)c1)C(=O)Nc1nc(-c2ccccc2)cs1 [Compound 55, (S)-3-(2-hydroxypropan-2-yl)-N-(4-(methylthio)-1-oxo-1-((4-phenylthiazol-2-yl)amino)butan-2-yl)benzamide]
> 10 | >90 | > 10 | >90 | CSCC[C@H](NC(=O)c1ccc(CN)cc1)C(=O)Nc1nc(-c2ccccc2)cs1 [Compound 57, 4-(aminomethyl)-N-[3-methylsulfanyl-1-[(4-phenylthiazol-2-yl)carbamoyl]propyl]benzamide]
> 10 | >90 | > 10 | >90 | CSCC[C@H](NC(=O)c1cccc(O)c1)C(=O)Nc1nc(-c2ccccc2)cs1 [Compound 59, (S)-3-hydroxy-N-(4-(methylthio)-1-oxo-1-((4-phenylthiazol-2-yl)amino)butan-2-yl)benzamide]
> 10 | >80 | > 10 | >90 | CSCC[C@H](NC(=O)c1ccc(CN(C)C)cc1)C(=O)Nc1nc(-c2ccccc2)cs1 [Compound 60, 4-[(dimethylamino)methyl]-N-[(1S)-3-methylsulfanyl-1-[(4-phenylthiazol-2-yl)carbamoyl]propyl]benzamide]
1 to 10 | >50 | 1 to 10 | >80 | CC(C)(O)c1cccc(C(=O)NCC(=O)Nc2nc(-c3ccccc3)cs2)c1 [Compound 61, 3-(2-hydroxypropan-2-yl)-N-(2-oxo-2-((4-phenylthiazol-2-yl)amino)ethyl)benzamide]
1 to 10 | >70 | 1 to 10 | >80 | CSCC[C@H](NC(=O)c1ccc(S(=O)(=O)N(C)C)s1)C(=O)Nc1nc(-c2ccccc2)cs1 [Compound 62, 5-(dimethylsulfamoyl)-N-[(1S)-3-methylsulfanyl-1-[(4-phenylthiazol-2-yl)carbamoyl]propyl]thiophene-2-carboxamide]
1 to 10 | >60 | 1 to 10 | >70 | CSCC[C@H](NC(=O)c1cc(S(=O)(=O)N(C)C)cs1)C(=O)Nc1nc(-c2ccccc2)cs1 [Compound 64, 4-(dimethylsulfamoyl)-N-[(1S)-3-methylsulfanyl-1-[(4-phenylthiazol-2-yl)carbamoyl]propyl]thiophene-2-carboxamide]
> 10 | >50 | > 10 | >70 | CSCC[C@H](NC(=O)c1ccc2[nH]cnc2c1)C(=O)Nc1nc(-c2ccccc2)cs1 [Compound 66, (S)—N-(4-(methylthio)-1-oxo-1-((4-phenylthiazol-2-yl)amino)butan-2-yl)-1H-benzo[d]imidazole-5-carboxamide]
> 10 | >70 | > 10 | >70 | COc1ccc(C(=O)N[C@@H](CCSC)C(=O)Nc2nc(-c3ccccc3)cs2)cc1 [Compound 67, 4-methoxy-N-[(1S)-3-methylsulfanyl-1-[(4-phenylthiazol-2-yl)carbamoyl]propyl]benzamide]
